Reference: BigSolDB 2.1

Nc1ccc(S(=O)(=O)Nc2ncccn2)cc1
solubility (mole fraction)
Settings	278.15 K	283.15 K	288.15 K	293.15 K	298.15 K	303.15 K	308.15 K	313.15 K	318.15 K
in acetonitrile	0.000316	0.000385	0.000465	0.000532	0.000602	0.000666	0.000775	0.000865	0.000935
in methanol	7.1e-05	9.5e-05	0.000132	0.000162	0.000191	0.000236	0.00029	0.00034	0.000384
